Where a name gives a salt, the structure may show the parent alone.
Tests used:
in vitro = details: human
[1] = system: respiratory syncytial virus Long strain; experiment: microbe, parasite or virus in culture; format: cell-based; details: for % cell protection from RSV at 4 µg/mL: human respiratory syncytial virus, 96 h, 4 μg/mL of compound, RSV Long strain-infected HEp-2 cells, compound added 1 hour post infection, 4 days, MTT
[2] = system: HEp-2 (ATCC CCL 23) cells

| SMILES | CC50 at 4 days (in vitro) | % cell protection from RSV at 4 µg/mL [1] | cell protection ([1]; control compound at 2.5 μg/mL (corresponding to 10.2 μM)) | CC50 [2] | % Cell protection at 4 μg/mL [1] |
| --- | --- | --- | --- | --- | --- |
| CC(C)(C)C(O)Cn1c(Cn2nnc3ccccc32)nc2ccccc21 (stereo not drawn) [Example 27, 1-(2-Benzotriazol-1-ylmethyl-1-H-benzimidazol-1-yl)-3,3-dimethylbutan-2-ol] | 117 µM | 44% | – | – | – |
| CS(=O)(=O)CCn1c(Cn2nnc3ccccc32)nc2ccccc21 [Example 26, 1-[1-(2-Methylsulfonyl-ethyl)-1H-benzimidazol-2-ylmethyl]-1H-benzotriazole] | 200 µM | 100% | – | – | – |
| CC(C)CCCn1c(Cn2nnc3ccccc32)nc2ccccc21 [Example 22, 1-[1-(4-Methylpentyl)-1H-benzimidazol-2-ylmethyl]-1H-benzotriazole] | 15 µM | 75% | – | – | – |
| O=CCCn1c(Cn2nnc3ccccc32)nc2ccccc21 [Example 30, 1-[(2-Benzotriazol-1-ylmethyl)-1-H-benzimidazol-1-yl]-propionaldehyde] | 108 µM | 90% | – | – | – |
| c1cncc(Cn2c(Cn3nnc4ccccc43)nc3ccccc32)c1 [Example 47, 1-[1-(Pyridin-3-yl-methyl)-1H-benzimidazol-2-ylmethyl]-1H-benzotriazole] | 250 µM | 40% | – | – | – |
| CS(=O)(=O)OCCn1c(Cn2nnc3ccccc32)nc2ccccc21 [Example 32, Methanesulfonic Acid, 2-(2-benzotriazol-1-ylmethyl-benzimidazol-1-yl)-ethyl ester] | 71 µM | 60% | – | – | – |
| CC(C)CCn1c(Cn2nnc3ccccc32)nc2ccccc21 [Example 20, 1-[1-(3-Methylbutyl)-1H-benzimidazol-2-ylmethyl)-1H-benzotriazole] | 40 µM | 87% | – | – | – |
| c1ccc2c(c1)nnn2Cc1nc2ccccc2n1CCC1OCCO1 [Example 29] | 185 µM | 98% | – | – | – |
| [N-]=[N+]=NCCn1c(Cn2nnc3ccccc32)nc2ccccc21 [Example 33, 1-[1-(2-Azido-ethyl)-1-H-benzimidazol-2-ylmethyl)-1H-benzotriazole] | 75 µM | 82% | – | – | – |
| NC(=O)c1ncn([C@@H]2O[C@H](CO)[C@@H](O)[C@H]2O)n1 [Ribavirin, reference compound] | – | – | 100% | – | – |
| CC(C)(C)OC(=O)CCn1c(Cn2nnc3ccccc32)nc2ccccc21 [Example 42] | 168 µM | 100% | – | – | – |
| N/C(CCn1c(Cn2nnc3ccccc32)nc2ccccc21)=N\O [Example 44, N-[3-(2-Benzotriazol-1-ylmethyl-benzimidazol-1-yl)-1-imino-propyl)-hydroxyamine] | 16 µM | 91% | – | – | – |
| CCCCn1c(Cn2nnc3ccccc32)nc2ccccc21 [Example 19, 1-(1-Butyl-1H-benzimidazol-2-ylmethyl)-1H-benzotriazole] | 12 µM | 95% | – | – | – |
| C[S+]([O-])CCn1c(Cn2nnc3ccccc32)nc2ccccc21 (stereo not drawn) [Example 25, 1-[1-(2-Methylsulfinyl-ethyl)-1H-benzimidazol-2-ylmethyl]-1H-benzotriazole] | 56 µM | 100% | – | – | – |
| CC(C)CCn1c(Cn2nc3ccccc3n2)nc2ccccc21 [Example 61, 2-[1-(3-methylbutyl)-1H-benzimidazol-2-ylmethyl]-2H-benzotriazole Dihydrochloride] | 27 µM | 78% | – | – | – |
| CSCCn1c(Cn2nnc3ccccc32)nc2ccccc21 [Example 24, 1-[1-(2-Methylthio-ethyl)-1H-benzimidazol-2-ylmethyl]-1H-benzotriazole] | 165 µM | 100% | – | – | – |

| SMILES | CC50 at 4 days (in vitro) | % cell protection from RSV at 4 µg/mL [1] | cell protection ([1]; control compound at 2.5 μg/mL (corresponding to 10.2 μM)) | CC50 [2] | % Cell protection at 4 μg/mL [1] |
| --- | --- | --- | --- | --- | --- |
| CNC(=O)Cn1c(Cn2nnc3ccccc32)nc2ccccc21 [Example 35, 2-(2-Benzotriazol-1-ylmethyl-benzimidazol-1-yl)-N-methyl acetamide] | 230 µM | 58% | – | – | – |
| NC(=O)CCn1c(Cn2nnc3ccccc32)nc2ccccc21 [Example 41, 3-(2-Benzotriazol-1-ylmethyl-1-H-benzimidazol-1-yl)-propionamide] | 4.3 µM | 75% | – | – | – |
| O=C(O)CCn1c(Cn2nnc3ccccc32)nc2ccccc21 [Example 43] | > 309 µM | 82% | – | – | – |
| CC(CCn1c(Cn2nnc3ccccc32)nc2ccccc21)=NO [Example 39] | > 33 µM | 100% | – | – | – |
| OCCn1c(Cn2nnc3ccccc32)nc2ccccc21 [Example 31, 2-(2-Benzoatrizol-1-ylmethyl-benzimidazol-1-yl)-ethanol] | 21 µM | 48% | – | – | – |
| CC(N)CCn1c(Cn2nnc3ccccc32)nc2ccccc21 (stereo not drawn) [Example 40, 3-(2-Benzotriazol-1-ylmethyl-benzimidazol-1-yl)-1-methyl-propylamine] | 8.5 µM | 96% | – | – | – |
| CC(=O)CCn1c(Cn2nnc3ccccc32)nc2ccccc21 [Example 37] | – | – | – | 59 µM | 100% |
| CC(CCn1c(Cn2nnc3ccccc32)nc2ccccc21)CC(C)(C)C (stereo not drawn) [Example 23, 1-[1-(3,5,5-Trimethyl-hexyl)-1H-benzimidazol-2-ylmethyl]-1H-benzotriazole] | 59 µM | 98% | – | – | – |
| c1ccc2c(c1)nnn2Cc1nc2ccccc2n1CC1OCCO1 [Example 28] | 29 µM | 61% | – | – | – |
| CC(C)=CCn1c(Cn2nnc3ccccc32)nc2ccccc21 [Example 21, 1-[1-(3-Methyl-2-butenyl)-1H-benzimidazol-2-ylmethyl]-1H-benzotriazole] | 69 µM | 98% | – | – | – |
| CC(O)CCn1c(Cn2nnc3ccccc32)nc2ccccc21 (stereo not drawn) [Example 38] | > 309 µM | 100% | – | – | – |
| N=C(N)CCn1c(Cn2nnc3ccccc32)nc2ccccc21 [Example 45, 3-(2-Benzotriazol-1-ylmethyl-benzimidazol-1-yl)-1-imino-1propyl-amine Diacetate] | 6.3 µM | 74% | – | – | – |
| O=C(Cn1c(Cn2nnc3ccccc32)nc2ccccc21)c1ccccc1 [Example 49, 2-[(2-Benzotriazol-1-ylmethyl)-benzimidazol-1-yl]-1-phenyl-ethanone] | 18 µM | 76% | – | – | – |
| c1ccc(Cn2c(Cn3nnc4ccccc43)nc3ccccc32)cc1 [Example 46, 1-[(1-Phenylmethyl-1H-benzimidazol)-2-ylmethyl]-1H-benzotriazole] | 97 µM | 53% | – | – | – |
| OC(Cn1c(Cn2nnc3ccccc32)nc2ccccc21)c1ccccc1 (stereo not drawn) [Example 50, 2-[(2-Benzotriazol-1-ylmethyl)-benzimidazol-1-yl]-1-phenyl-ethanol] | 36 µM | 94% | – | – | – |
| c1ccc(CCn2c(Cn3nnc4ccccc43)nc3ccccc32)cc1 [Example 48, 1-[1-(2-Phenethyl)-1-H-benzimidazol-2-ylmethyl)-1H-benzotriazole] | 2.6 µM | 95% | – | – | – |
